Measurements taken from publication PMC3369139, “Preclinical evaluation of two ^68Ga-siderophores as potential radiopharmaceuticals for Aspergillus fumigatus infection imaging” (European Journal of Nuclear Medicine and Molecular Imaging, 2012).
Several values for one entry are separate records, joined by “and”; a condition that tells them apart may be missing. Identical values can stand only once.

What was measured:
Stability in 6 mM DTPA = assay type: physicochemical
Procedure: (§1) TAFC and FOXE were labelled with ^68Ga using acetate buffer at room temperature for 15 min (TAFC) and at 80 °C for 20 min (FOXE). For all in vitro and in vivo studies, the pH of the final product was adjusted with 1.1 M sodium acetate to pH 6–7. The radiochemical purity, log P, protein binding and stability of ^68Ga-siderophores in various media were determined, as described previously.

Stability in human serum = assay type: in vitro ADME
Procedure: as §1

A. fumigatus [1] = assay: PET imaging in rat A. fumigatus infection model; assay type: in vivo, Lewis rats; details: infected rats, lungs, calculated from all PET imaging studies, mean ± sd, n=13
Procedure: (§2) Female or male Lewis rats (2–3 months old), weighing 200–250 g, were treated as described previously. Briefly, the rats received repeated intraperitoneal injections of cyclophosphamide to induce neutropenia before A. fumigatus administration. To prevent bacterial superinfection, the animals were given antibiotics throughout the experiment. Fungal infection was established by intratracheal administration of 100–300 μl of A. fumigatus inoculum in various concentrations (1 × 10^5 to 1 × 10^9 conidia per millilitre). Animals were injected intravenously 1–3 days (depending on the severity of infection) after A. fumigatus administration with ^68Ga-labelled siderophore (10–20 MBq and 1–2 μg of siderophore per rat). The rats were imaged or killed by overdosing with thiopental (Sandoz, Kundl, Austria) 2 h after injection. Various organs and tissues (blood, spleen, kidneys, liver and lungs) were removed and radioactivity was measured in a γ-counter. The excised organs were investigated for the presence of fungi, as described below.
PET images were acquired with an Inveon animal PET/CT scanner (Siemens Preclinical Solutions, Knoxville, TN) with an intrinsic spatial resolution of 1.5 mm. The animals were placed in a prone position. Static PET images were acquired over 30 min starting 30 min after intravenous injection of ^68Ga-siderophore. Dynamic PET imaging was started upon injection and continued up to 60 min after injection. In addition, combined PET/CT scans were performed for anatomical reference. PET emission scans were acquired for 30 min, preceded by CT scans (spatial resolution 113 μm, 80 kV, 500 μA, exposure time 300 ms). After imaging, animals were killed by CO2/O2. Scans were reconstructed using Inveon Acquisition Workplace software (version 1.5; Siemens Preclinical Solutions, Knoxville, TN) using a 3-D ordered subset expectation maximization/maximum a posteriori (OSEM3D/MAP) algorithm with the following parameters: matrix 256 × 256 × 159, pixel size 0.43 × 0.43 × 0.8 mm^3 and a MAP prior β-value of 1.5.

A. fumigatus [2] = assay: Ex vivo biodistribution in rat A. fumigatus infection model, iron preload; parameters: species or system Lewis rats
Procedure: (§3) The A. fumigatus (A29) isolate was grown on Sabouraud dextrose agar (BD) for 5 days at 37 °C, and the conidia were harvested in 2 ml of sterile NaCl by gently rubbing with a pipette tip. The conidia suspension was transferred into a sterile 50 ml plastic tube. After homogenization (vortex) and filtration (40 μm nylon cell strainer; BD), the suspension was counted in a Neubauer chamber and adjusted to the volitional concentration in the range 1 × 10^5 to 1 × 10^9 conidia per millilitre.
as §2
Rats were treated as in the ‘standard’ infection model above, except that iron solution (FerMed; Medice, Iserlohn, Germany) 10 mg/kg was injected intraperitoneally three times (1 week, 4 days and 1 day) before A. fumigatus administration.
(§4) The excised organs were homogenized in a petri dish using a sterile surgical blade and transferred to Sabouraud dextrose agar (BD) plates. The plates were incubated at 37 °C and examined daily for 7 days. […] Severe infection was defined as the presence of severe fungal growth 1 day after incubation, mild infection was defined as the presence of minor growth up to 3 days after incubation, and no infection was defined as lack of growth within 1 week of incubation.

[3] = Protein binding in human serum; assay type: in vitro ADME
Procedure: as §1

A. fumigatus [4] = assay: Ex vivo biodistribution in rat A. fumigatus infection model, standard; parameters: species or system Lewis rats
Procedure: as §3, §2, §4

Stability in 0.1 M FeCl3 = assay type: physicochemical
Procedure: as §1

[5] = Log P of ^68Ga-siderophores; assay type: physicochemical; details: determined as described previously [20]
Procedure: as §1

[6] = Biodistribution in normal Balb/c mice; assay type: in vivo; details: normal noninfected Balb/c mice, i.v. tail vein
Procedure: Normal noninfected Balb/c mice (female, 6 weeks old) were injected with ^68Ga-siderophore (2 MBq and 0.1–0.2 μg of siderophore per mouse) into the tail vein. Animals were killed by cervical dislocation 30 min and 90 min after injection. The organs and tissues (blood, spleen, pancreas, stomach, intestines, kidneys, liver, heart, lungs, muscle and femur) were removed and radioactivity was counted in a γ-counter. The results are expressed as percentage of injected dose per gram of tissue.

[7] = iron preload model, 2 h after injection

In the case of `CC(=O)NC1CCCN([O-])C(=O)C=C(C)CCOC(=O)C(NC(C)=O)CCCN([O-])C(=O)C=C(C)CCOC(=O)C(NC(C)=O)CCCN([O-])C(=O)C=C(C)CCOC1=O.[68Ga+3]` (stereo not shown) [^68Ga-TAFC, triacetylfusarinine C], the “Stability in 6-mM DTPA (%)” value (Stability in 6 mM DTPA; incubation time 30 min) is reported as 85.0%, the “Stability in 6-mM DTPA (%)” value (Stability in 6 mM DTPA; incubation time 60 min) is reported as 84.7% and the “Stability in human serum (%)” value (Stability in human serum; incubation time 30 min) is reported as 99.9%. For the same compound, the “Stability in human serum (%)” value (Stability in human serum; incubation time 60 min) was 99.9%, the “Stability in human serum (%)” value (Stability in human serum; incubation time 120 min) was 99.9% and the Target/non-target ratio (A. fumigatus [1]) was 5.81 ± 6.05 (n=13). The “Severe infection (%ID/g - lungs)” value (A. fumigatus [2]; iron preload model (10 mg/kg i.p. three times), severely infected rats, lungs 2 h after injection, n in cell) was 0.64 (n=1) %ID/g, the “Lung/blood ratio, control” value (A. fumigatus [2]; [7]) was 0.99 (n=1) and the “Lung/blood ratio, mild infection” value (A. fumigatus [2]; [7]) was 5.35 (n=2). The “Lung/blood ratio, severe infection” value (A. fumigatus [2]; [7]) was 1.41 (n=1), the “Lung/kidneys ratio, control” value (A. fumigatus [2]; [7]) was 0.08 (n=1) and the “Lung/kidneys ratio, mild infection” value (A. fumigatus [2]; [7]) was 0.31 (n=2). The “Lung/kidneys ratio, severe infection” value (A. fumigatus [2]; [7]) was 0.07 (n=1), the “Lung/liver ratio, control” value (A. fumigatus [2]; [7]) was 0.76 (n=1) and the “Lung/liver ratio, mild infection” value (A. fumigatus [2]; [7]) was 4.53 (n=2). For the same compound, the “Lung/liver ratio, severe infection” value (A. fumigatus [2]; [7]) was 3.49 (n=1), the “Mild infection (%ID/g - lungs)” value (A. fumigatus [2]; iron preload model, mildly infected rats, lungs 2 h after injection, n in cell) was 0.27 (n=2) %ID/g and the “Control (%ID/g - lungs)” value (A. fumigatus [2]; iron preload model, rats showing no infection, lungs 2 h after injection, n in cell) was 0.04 (n=1) %ID/g. For the same compound, the “Protein binding (%)” value ([3]; incubation time 30 min) was 0.47%, the “Protein binding (%)” value ([3]; incubation time 60 min) was 0.76% and the “Protein binding (%)” value ([3]; incubation time 120 min) was 1.21%. For the same compound, the “Lung/blood ratio, control (mean ± sd)” value (A. fumigatus [4]; 2 h after injection) was 1.34 ± 0.22 (n=9), the “Lung/blood ratio, mild infection (mean ± sd)” value (A. fumigatus [4]; 2 h after injection) was 3.82 ± 2.89 (n=3) and the “Lung/blood ratio, severe infection (mean ± sd)” value (A. fumigatus [4]; 2 h after injection) was 15.11 ± 11.37 (n=4). For the same compound, the “Lung/kidneys ratio, control (mean ± sd)” value (A. fumigatus [4]; 2 h after injection) was 0.07 ± 0.03 (n=9), the “Lung/kidneys ratio, mild infection (mean ± sd)” value (A. fumigatus [4]; 2 h after injection) was 0.16 ± 0.14 (n=3) and the “Lung/kidneys ratio, severe infection (mean ± sd)” value (A. fumigatus [4]; 2 h after injection) was 1.40 ± 0.76 (n=4). The “Lung/liver ratio, control (mean ± sd)” value (A. fumigatus [4]; 2 h after injection) was 0.84 ± 0.48 (n=9), the “Lung/liver ratio, mild infection (mean ± sd)” value (A. fumigatus [4]; 2 h after injection) was 4.81 ± 2.70 (n=3) and the “Lung/liver ratio, severe infection (mean ± sd)” value (A. fumigatus [4]; 2 h after injection) was 14.29 ± 6.10 (n=4). For the same compound, the “Mild infection (%ID/g - lungs) (mean ± sd)” value (A. fumigatus [4]; mildly infected rats, lungs ex vivo 2 h after injection, n in cell) was 0.29 ± 0.12 %ID/g and 0.29 ± 0.12 (n=3) %ID/g, the “Control (%ID/g - lungs) (mean ± sd)” value (A. fumigatus [4]; rats showing no infection, lungs ex vivo 2 h after injection, n in cell) was 0.04 ± 0.01 %ID/g and 0.04 ± 0.01 (n=9) %ID/g and the “Severe infection (%ID/g - lungs) (mean ± sd)” value (A. fumigatus [4]; severely infected rats, lungs ex vivo 2 h after injection, γ-counter, n in cell) was 0.95 ± 0.37 %ID/g and 0.95 ± 0.37 (n=4) %ID/g. The “Stability in 0.1-M FeCl3 (%)” value (Stability in 0.1 M FeCl3; incubation time 30 min) was 99.4%, the “Stability in 0.1-M FeCl3 (%)” value (Stability in 0.1 M FeCl3; incubation time 60 min) was 98.5% and the “Stability in 0.1-M FeCl3 (%)” value (Stability in 0.1 M FeCl3; incubation time 120 min) was 99.3%. The “Log P” value [5] was −2.59, the Blood level ([6]; 30 min after injection) was 1.6 ± 0.37 %ID/g and the Intestinal accumulation ([6]; 30 min after injection) was 1.7 ± 1.04 %ID/g. The Intestinal accumulation ([6]; 90 min after injection) was 1.0 ± 0.26 %ID/g.
